A value given as a limit tells only on which side of the number the result lay.

The term EC50 denotes the concentration giving half of the maximal effect.

Glycogen synthase kinase-3 beta, sequence (P49841 whole entry): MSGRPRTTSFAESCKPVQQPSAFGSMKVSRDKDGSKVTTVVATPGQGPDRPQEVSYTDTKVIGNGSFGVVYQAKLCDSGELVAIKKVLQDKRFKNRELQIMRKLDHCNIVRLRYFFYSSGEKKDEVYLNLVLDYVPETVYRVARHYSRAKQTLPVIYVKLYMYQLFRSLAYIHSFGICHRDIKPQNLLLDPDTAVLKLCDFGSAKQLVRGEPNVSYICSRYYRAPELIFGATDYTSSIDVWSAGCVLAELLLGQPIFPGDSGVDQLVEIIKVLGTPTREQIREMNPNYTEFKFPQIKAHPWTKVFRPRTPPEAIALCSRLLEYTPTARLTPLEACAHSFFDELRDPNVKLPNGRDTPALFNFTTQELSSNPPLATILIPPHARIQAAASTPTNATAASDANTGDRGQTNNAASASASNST

This assay concerns the target Glycogen synthase kinase-3 beta (Homo sapiens, UniProt P49841). Kind of assay: GSK3beta kinase inhibitor potency, dose response, biochemical, luminescence, cell-free homogeneous, retest (AID 434954).
The molecule `CC(C)c1ccc(C(=O)NCCCN2CCN(CCCNC(=O)c3ccc(C(C)C)cc3)CC2)cc1` [SMR000272164] yielded an EC50 greater than 300 µM.
To `CC(=O)NC(=S)Nc1ccccc1N1CCCCC1` [SMR000292167] belongs greater than 300 µM; to `N#Cc1c(-c2cccs2)nc(SCc2ccc(Cl)cc2)[nH]c1=O` [MLS000705749], greater than 300 µM; to `Cc1ncsc1CCSc1nc2ccccc2c(=O)n1C` [3-methyl-2-{[2-(4-methyl-1,3-thiazol-5-yl)ethyl]thio}-4(3H)-quinazolinone], 18.8 µM.
Turning to `Clc1cccc(Nc2nc(-c3ccncc3)nc3ccccc23)c1`, the response was half-maximal at 56.8 µM (EC50).
To `CC(=O)N1CCc2c(sc(NC(=O)C3CCCN3S(=O)(=O)c3cccs3)c2C(N)=O)C1` (stereo not drawn) [6-acetyl-2-[(1-thiophen-2-ylsulfonylpyrrolidine-2-carbonyl)amino]-5,7-dihydro-4H-thieno[2,3-c]pyridine-3-carboxamide] belongs greater than 300 µM; to `O=C(NCCCN1CCCC1=O)c1ccc2c(c1)NC(=O)c1ccccc1S2` [MLS000522698], greater than 300 µM.
`N#Cc1c(N)n(-c2cccc(O)c2)c2nc3ccccc3nc12` [SMR000413688] had an EC50 greater than 300 µM.
For `CCOC(=O)C1=C(C)NC(=O)C1=CNc1ccccc1` [SMR000168580] the value was 51.5 µM; for `c1ccc(CCCNCC2COc3ccccc3O2)cc1` (stereo not drawn), greater than 300 µM; for `O=S(=O)(Nc1cccnc1)c1ccc(C2CCCCC2)cc1` [MLS000075296], greater than 300 µM.
For `O=C1c2ccccc2NC(c2c[nH]nc2-c2ccccc2)N1O` (stereo not drawn), the EC50 is greater than 300 µM.
For `COc1ccc(CCNc2nc(-c3cccnc3)nc3ccccc23)cc1OC` [N-[2-(3,4-dimethoxyphenyl)ethyl]-2-pyridin-3-ylquinazolin-4-amine] the value was greater than 300 µM.
For `CSc1nnnn1-c1c(C)cccc1C` [MLS000861118] the value was greater than 300 µM; for `O=C(Nc1cccc(F)c1)c1cccc2c1C(=O)N(C1CCCCC1)C2` [MLS000912875], greater than 300 µM.
For `O=C(Nc1ccccn1)C(=O)Nc1ccccn1` [N,N'-dipyridin-2-ylethanediamide] the value was greater than 300 µM; for `CCOc1ccccc1NC(=O)N1CCC2(CC1)OCCO2` [MLS000581263], greater than 300 µM.
For the molecule `Cc1cccc(COc2ccc(C=NNC(=O)c3nnn(-c4nonc4N)c3CN3CCCCC3)cc2)c1` [SMR000646486], the EC50 was greater than 300 µM.
`COc1cccc(CCNC(=O)c2ccc(C#N)cc2)c1` [MLS000696427] yielded an EC50 greater than 300 µM.
To `COC(=O)C(C)Oc1cc(OC(C)C(=O)OC)c2c(-c3ccccc3)cc(=O)oc2c1` (stereo not drawn) [methyl 2-[5-(1-methoxy-1-oxopropan-2-yl)oxy-2-oxo-4-phenylchromen-7-yl]oxypropanoate] belongs greater than 300 µM; to `CCCCC(=O)Nc1ccc(C(=O)NNC(=O)CCCOc2ccc(Cl)cc2Cl)cc1` [N-[4-[[[4-(2,4-dichlorophenoxy)-1-oxobutyl]hydrazo]-oxomethyl]phenyl]pentanamide], greater than 300 µM; to `CCNc1nc(N)c(C(=C(C#N)C#N)c2ccccc2)s1`, greater than 300 µM.
To `CCOC(=O)c1c(C)[nH]c(C)c1C(=O)COC(=O)CNC(=O)c1ccc(OCC)cc1` [4-[2-[2-[[(4-ethoxyphenyl)-oxomethyl]amino]-1-oxoethoxy]-1-oxoethyl]-2,5-dimethyl-1H-pyrrole-3-carboxylic acid ethyl ester] belongs greater than 300 µM.
To `COc1ccc(-c2nn(-c3ccccc3)cc2C(=O)O)cc1OC` [SMR000124387] belongs greater than 300 µM.
`Cc1ccc(NC(=S)NC2CC3CCC(C2)N3Cc2ccco2)c(C)c1` (stereo not drawn) [1-(2,4-dimethylphenyl)-3-[8-(2-furanylmethyl)-8-azabicyclo[3.2.1]octan-3-yl]thiourea] displayed an EC50 greater than 300 µM.
To `C=CCNc1nc(N)c([N+](=O)[O-])c(Nc2ccccc2OC)n1` [4-N-(2-methoxyphenyl)-5-nitro-2-N-prop-2-enylpyrimidine-2,4,6-triamine] belongs greater than 300 µM; to `COC(=O)c1cc(S(=O)(=O)N2CCCC(C)C2)c[nH]1` (stereo not drawn), greater than 300 µM.
To `CN(Cc1c(C(=O)NN=Cc2ccc(O)cc2)nnn1-c1nonc1N)C1CCCCC1` [MLS001142838] belongs 0.186 µM.
For `CC(=O)N(\C=C/C=C/C=C1\Sc2ccccc2C1=O)c1ccccc1` [N-[(1Z,3E,5Z)-5-(3-oxo-1-benzothien-2(3H)-ylidene)penta-1,3-dienyl]-N-phenylacetamide] the value was greater than 300 µM; for `COCCNc1nc(N)c([N+](=O)[O-])c(NC2CCCCC2)n1`, 5.35 µM.
In turn, `Cc1csc2c(=O)n(CCO)c(=O)[nH]c12` [MLS000861875] came in with an EC50 greater than 300 µM.
For `CSc1nc2c(c(=O)[nH]1)C(c1cccs1)C1C(=O)CCCC1=N2` (stereo not drawn) the value was greater than 300 µM; for `COc1ccc(C(=O)ON=C(C)c2cccs2)cc1` [MLS000544771], 13.9 µM; for `Cc1n[nH]c2c1[C@@H](c1ccccc1[N+](=O)[O-])C(C#N)C(=N)O2` (stereo partly drawn) [(4S)-6-azanyl-3-methyl-4-(2-nitrophenyl)-2,4-dihydropyrano[2,3-c]pyrazole-5-carbonitrile], 9.65 µM.
To `CN(C)Cc1c(C(=O)NN=CCCc2ccccc2)nnn1-c1nonc1N` belongs 21.8 µM; to `Cc1ccccc1CSc1ccc2nnc(-c3ccccn3)n2n1` [SMR000323599], greater than 300 µM; to `CCN1CCN(c2cc(C)c3cc(NC(=O)c4cc(OC)cc(OC)c4)ccc3n2)CC1` [N-[2-(4-ethylpiperazin-1-yl)-4-methylquinolin-6-yl]-3,5-dimethoxybenzamide], greater than 300 µM.
For `CN(C)c1nc(N)c([N+](=O)[O-])c(NCCO)n1` the value was greater than 300 µM; for `CCOc1ccc(CNC(=O)Cn2ccc3cc(S(=O)(=O)N4CCCCCC4)ccc32)cc1` [SMR000629622], greater than 300 µM.
As to `C[O+]=N[CH-]c1ccc(Oc2ccc(C)cc2)c([N+](=O)[O-])c1` [4-(4-methylphenoxy)-3-nitrobenzenecarbaldehyde O-methyloxime], the EC50 was greater than 300 µM.
The molecule `c1ccc(CNc2nc(-c3cccnc3)nc3ccccc23)cc1` yielded an EC50 greater than 300 µM.
To `N#Cc1c2n(c3c(S)ncnc13)CCCCC2` [4-sulfanylidene-1,6,7,8,9,10-hexahydropyrimido[3,4]pyrrolo[3,5-a]azepine-11-carbonitrile] belongs 0.304 µM; to `COc1cc(/C=C2/C(=O)NN(c3cccc(Cl)c3)C2=O)cc(Br)c1O` [MLS001210835], 42.6 µM.
`COc1cccc(C2C3=C(CC(C)(C)CC3=O)N=C(C)C2C#N)c1` (stereo not drawn) [4-(3-methoxyphenyl)-2,7,7-trimethyl-5-oxo-1,4,5,6,7,8-hexahydro-3-quinolinecarbonitrile] returned an EC50 greater than 300 µM.
For `Cc1[nH]nc2c1C(c1cccs1)C1C(=O)CC(C)(C)CC1=N2` (stereo not drawn) [3,7,7-trimethyl-4-thiophen-2-yl-2,4,6,8-tetrahydro-1H-pyrazolo[3,4-b]quinolin-5-one] the value was 1.36 µM; for `Cc1nc2sc(C(c3cccc(F)c3)N3CC(C)OC(C)C3)c(O)n2n1` (stereo not drawn), greater than 300 µM; for `Cc1ccc(-c2n[nH]c(=S)n2N=Cc2ccncc2)cc1` [SMR000269897], 11.5 µM.
To `O=C(CCSCCc1ccccn1)Nc1cc(F)ccc1F` [N-(2,5-difluorophenyl)-3-(2-pyridin-2-ylethylsulfanyl)propanamide] belongs greater than 300 µM.

The values are drawn from BindingDB's records for doi:10.7270/Q2TX3CTT (Broad Institute, 2010).
